Experimental findings from US20150031641A1, “METHODS AND COMPOSITIONS FOR THE DIAGNOSIS, PROGNOSIS AND TREATMENT OF ACUTE MYELOID LEUKEMIA” (MEMORIAL SLOAN-KETTERING CANCER CENTER, priority 2012, published 2015) are described below.

The experiment concerns patients with AML. In words: ECOG E1900 trial: overall survival after induction with high-dose vs standard-dose daunorubicin plus cytarabine, by genotype. In kind it is in vivo, human. The following applies: for outcome with dose-intensified induction therapy: univariate analysis. The procedure:
The present disclosure is based on mutational analysis of 18 genes in 398 patients with AML younger than 60 years of age randomized to receive induction therapy including high-dose or standard dose daunorubicin. Prognostic findings were further validated in an independent set of 104 patients.
Mutational analysis was performed on diagnostic patient samples from the ECOG E1900 trial in the test (n=398) and validation (n=104) cohorts. The test cohort comprised of all E1900 patients for whom viably frozen cells were available for DNA extraction and mutational profiling. The validation cohort comprised of a second set of patients for whom samples were banked in Trizol, which was used to extract DNA for mutational studies.
Clinical characteristics of the patients studied compared to the complete E1900 trial cohort are in Table 1. The median follow-up time of patients included for analysis was 47.4 months from induction randomization. Cytogenetic analysis, fluorescent in situ hybridization, and RT-PCR for recurrent cytogenetic lesions was performed as described initially by Slovak et al. and utilized previously with central review by the ECOG Cytogenetics Committee (see ref. 16 and 17).
Survival time was measured from date of randomization to date of death for those who died and date of last follow-up for those who were alive at the time of analysis. Survival probabilities were estimated using the Kaplan-Meier method and compared across mutant and wild-type patients using the log-rank test. Multivariate analyses were conducted using the Cox model with forward selection. Proportional hazards assumption was checked by testing for a non-zero slope in a regression of the scaled Schoenfeld residuals on functions of time (Table 3).
When necessary, such as the analyses performed in various subsets, results of the univariate analyses were used to select the variables to be included in the forward variable search. Final multivariate models informed the development of novel risk classification rules. When indicated, p-values were adjusted to control the family wise error rate (FWER) using the complete null distribution approximated by resampling obtained through PROC MULTTEST in SAS or the multtest library in R^19. These adjustements were performed to adjust for the probability of making one or more false discoveries given that multiple pairwise tests were being performed. The only exception is adjustment for tests regarding effect of mutations on response to induction dose where a step-down Holm procedure was used to correct for multiple testing. All analyses were performed using SAS 9.2 (www.sas.com) and R 2.12 (www.r-project.org).
Mutual exclusivitity of pairs of mutations were evaluated by fourfold contingency tables and Fisher's exact test. The association between mutations and cytogenetic risk classification was tested using the chi-square test. Hierarchical clustering was performed using the Lance-Williams dissimilarity formula and complete linkage. Survival time was measured from date of randomization to date of death for those who died and date of last follow-up for those who were alive at the time of analysis. Survival probabilities were estimated using the Kaplan-Meier method and compared across mutant and wildtype patients using the log-rank test. Multivariate analyses were conducted using the Cox model. Proportional hazards assumption was checked by testing for a non-zero slope in a regression of the scaled Schoenfeld residuals on functions of time. […]

As for `COc1cccc2c1C(=O)c1c(O)c3c(c(O)c1C2=O)C[C@@](O)(C(C)=O)C[C@@H]3O[C@H]1C[C@H](N)[C@H](O)[C@H](C)O1` [daunorubicin], the “outcome with dose-intensified induction therapy” value by setting is: (AML patients with MLL translocations) “improved outcome”; (AML patients with NPM1 mutations) “improved outcome”. Moreover, for the setting “DNMT3A mutant patients”, the “survival with high-dose daunorubicin according to treatment arm” value is “associated with improved survival”. Besides, where the note is “patients receiving high-dose or standard-dose daunorubicin, FIG. 4B”, the “impact of DNMT3A mutational status on the outcome with dose-intensive chemotherapy” value was “significant impact”. Further, under “patients with DNMT3A or NPM1 mutations or MLL translocations, cytarabine plus 90 vs 45 mg/m^2 daunorubicin induction”, the “overall survival, high-dose relative to standard dose daunorubicin” value is “improved survival”.
